# Source: US20100292135A1 (priority 2005, published 2010)
# Columns and labels:
# [1] = tested on: wild type (AB1157) bacteria; assay: Development of chloramphenicol resistance (mean latency time, OD600 growth); assay type: cell-based; conditions: in the presence of RecA
# RecA protein [2] = target: T1, RecA protein (Escherichia coli, UniProt P0A7G6); assay: biochemical; assay type: binding, E. coli
# RecA protein [3] = target: T1, RecA protein; assay type: biochemical, E. coli
# RecA protein [4] = target: T1, RecA protein; conditions: cited from earlier work
# [5] = tested on: RecA-dependent SOS induction in GY7313 cells; assay: SOS induction by MMC in permeabilized E. coli (sfi-lacZ reporter, β-galactosidase); assay type: cell-based; conditions: MMC-induced
# T1 sequence (P0A7G6 2-353): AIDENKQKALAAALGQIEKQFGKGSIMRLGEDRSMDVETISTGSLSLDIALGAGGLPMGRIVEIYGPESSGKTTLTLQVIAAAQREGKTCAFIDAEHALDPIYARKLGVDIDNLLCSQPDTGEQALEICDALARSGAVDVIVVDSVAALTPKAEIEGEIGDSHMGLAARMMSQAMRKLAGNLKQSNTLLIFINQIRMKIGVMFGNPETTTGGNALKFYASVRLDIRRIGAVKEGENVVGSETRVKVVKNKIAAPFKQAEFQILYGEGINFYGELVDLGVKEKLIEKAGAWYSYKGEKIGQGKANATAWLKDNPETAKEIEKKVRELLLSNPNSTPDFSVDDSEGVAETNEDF
structure (smiles),measurement,setting,value
CCOS(C)(=O)=O [EMS],effect on chloramphenicol resistance development,[1],speed resistance development
"Nc1ncnc2c1ncn2[C@@H]1O[C@H](COP(=O)(O)OP(=O)(O)O)[C@@H](O)[C@H]1O [ADP, adenosine diphosphate]",Kd,RecA protein [2],84 ± 27 µM
"Nc1ncnc2c1ncn2[C@@H]1O[C@H](COP(=O)(O)OP(=O)(O)OP(=O)(O)O)[C@@H](O)[C@H]1O [ATP, adenosine triphosphate]",Hill coefficient nH,RecA protein [3],3
same,Michaelis constant S0.5 for RecA and ATP,RecA protein [3],47 µM
same,"S0.5 for ATP, reported literature values",RecA protein [4],40 to 45 µM
"O[C@@H](CS)[C@@H](O)CS [L-DTT, 1,4-dithio-L-threitol]",inhibition of RecA ATPase activity (in words),RecA protein [3],no inhibition
"O=P(O)(O)OP(=O)(O)OC[C@H]1O[C@@H](n2cnc3c(Nc4cccc5ccccc45)ncnc32)[C@H](O)[C@@H]1O [Compound 1, N^6-(1-Naphthyl)-Adenosine-5′-O-Diphosphate]",inhibition of SOS induction (β-galactosidase),[5],significantly inhibits SOS induction
NCCCCNCCCN [spermidine],effect on chloramphenicol resistance development,[1],retards resistance development
